In ChEMBL document CHEMBL5465560, “Selectivity Literature for EUbOPEN Chemogenomic Library” (2024):

Tests used:
[1] = molecular target: T1, Histone-lysine N-methyltransferase SETD7 (Homo sapiens) (UniProt Q8WTS6); conditions: at 10 µM
T1 sequence (whole entry): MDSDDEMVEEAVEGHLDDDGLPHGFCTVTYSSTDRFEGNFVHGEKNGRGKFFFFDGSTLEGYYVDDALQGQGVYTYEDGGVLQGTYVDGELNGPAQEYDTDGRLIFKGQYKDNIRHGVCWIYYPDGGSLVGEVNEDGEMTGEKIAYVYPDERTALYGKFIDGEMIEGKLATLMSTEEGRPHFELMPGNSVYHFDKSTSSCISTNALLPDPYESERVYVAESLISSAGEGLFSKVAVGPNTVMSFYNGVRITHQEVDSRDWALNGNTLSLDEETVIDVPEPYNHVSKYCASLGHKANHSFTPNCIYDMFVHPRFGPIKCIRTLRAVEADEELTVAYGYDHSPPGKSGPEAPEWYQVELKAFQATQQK

[2] = molecular target: Receptor tyrosine-protein kinase erbB-4 (Homo sapiens, UniProt Q15303); assay: Selectivity interaction (KinomeScan (DiscoverX)) EUB0000045b ERBB4
[3] = molecular target: Cyclin-dependent kinase 11B (Homo sapiens) (UniProt P21127); assay: Selectivity interaction (KinomeScan (DiscoverX)) EUB0001049a CDK11B; conditions: at 1 µM
[4] = molecular target: Diacylglycerol kinase alpha (Homo sapiens) (UniProt P23743); assay: Selectivity interaction (ActivX KiNativ screen (ex vivo kinase selectivity in human PBMCs)) EUB0001619a DGKA; format: cell-based; conditions: PBMC, at 1 µM
[5] = molecular target: Cyclin-dependent kinase 3 (Homo sapiens) (UniProt Q00526); assay: Selectivity interaction (KinomeScan (DiscoverX)) EUB0000618a CDK3; conditions: at 10 µM
[6] = molecular target: Calcium/calmodulin-dependent protein kinase type 1D (Homo sapiens) (UniProt Q8IU85); assay: Selectivity interaction (ActivX KiNativ screen (kinase selectivity in THP-1 cell lysates)) EUB0000639a CAMK1D; format: subcellular; conditions: lysate, at 0.2 µM
[7] = molecular target: T2, Serine/threonine-protein kinase 17B (Homo sapiens) (UniProt O94768); assay: Selectivity interaction (KinomeScan (DiscoverX)) EUB0000655a STK17B; conditions: at 10 µM
T2 sequence (whole entry): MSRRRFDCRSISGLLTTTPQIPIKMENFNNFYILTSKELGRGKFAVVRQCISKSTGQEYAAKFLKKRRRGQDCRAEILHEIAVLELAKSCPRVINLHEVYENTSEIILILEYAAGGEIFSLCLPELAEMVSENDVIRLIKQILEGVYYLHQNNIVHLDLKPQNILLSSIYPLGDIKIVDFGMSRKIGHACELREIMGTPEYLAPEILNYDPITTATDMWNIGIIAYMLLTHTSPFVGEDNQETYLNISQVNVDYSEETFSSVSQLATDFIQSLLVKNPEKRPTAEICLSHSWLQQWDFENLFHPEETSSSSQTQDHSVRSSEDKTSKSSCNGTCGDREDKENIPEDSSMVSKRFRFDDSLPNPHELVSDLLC

[8] = molecular target: Serine/threonine-protein kinase 38-like (Homo sapiens) (UniProt Q9Y2H1); conditions: at 10 µM
[9] = molecular target: Rho-associated protein kinase 2 (Homo sapiens, UniProt O75116); assay: Selectivity interaction (KinomeScan (DiscoverX)) EUB0000092b ROCK2; conditions: at 10 µM
[10] = molecular target: T3, Mitogen-activated protein kinase kinase kinase 19 (Homo sapiens) (UniProt Q56UN5); assay: Selectivity interaction (Ambit KINOMEscan and KiNATiv profiling in Jurkat cells) EUB0000090b MAP3K19; format: cell-based; conditions: at 1 µM
T3 sequence (whole entry): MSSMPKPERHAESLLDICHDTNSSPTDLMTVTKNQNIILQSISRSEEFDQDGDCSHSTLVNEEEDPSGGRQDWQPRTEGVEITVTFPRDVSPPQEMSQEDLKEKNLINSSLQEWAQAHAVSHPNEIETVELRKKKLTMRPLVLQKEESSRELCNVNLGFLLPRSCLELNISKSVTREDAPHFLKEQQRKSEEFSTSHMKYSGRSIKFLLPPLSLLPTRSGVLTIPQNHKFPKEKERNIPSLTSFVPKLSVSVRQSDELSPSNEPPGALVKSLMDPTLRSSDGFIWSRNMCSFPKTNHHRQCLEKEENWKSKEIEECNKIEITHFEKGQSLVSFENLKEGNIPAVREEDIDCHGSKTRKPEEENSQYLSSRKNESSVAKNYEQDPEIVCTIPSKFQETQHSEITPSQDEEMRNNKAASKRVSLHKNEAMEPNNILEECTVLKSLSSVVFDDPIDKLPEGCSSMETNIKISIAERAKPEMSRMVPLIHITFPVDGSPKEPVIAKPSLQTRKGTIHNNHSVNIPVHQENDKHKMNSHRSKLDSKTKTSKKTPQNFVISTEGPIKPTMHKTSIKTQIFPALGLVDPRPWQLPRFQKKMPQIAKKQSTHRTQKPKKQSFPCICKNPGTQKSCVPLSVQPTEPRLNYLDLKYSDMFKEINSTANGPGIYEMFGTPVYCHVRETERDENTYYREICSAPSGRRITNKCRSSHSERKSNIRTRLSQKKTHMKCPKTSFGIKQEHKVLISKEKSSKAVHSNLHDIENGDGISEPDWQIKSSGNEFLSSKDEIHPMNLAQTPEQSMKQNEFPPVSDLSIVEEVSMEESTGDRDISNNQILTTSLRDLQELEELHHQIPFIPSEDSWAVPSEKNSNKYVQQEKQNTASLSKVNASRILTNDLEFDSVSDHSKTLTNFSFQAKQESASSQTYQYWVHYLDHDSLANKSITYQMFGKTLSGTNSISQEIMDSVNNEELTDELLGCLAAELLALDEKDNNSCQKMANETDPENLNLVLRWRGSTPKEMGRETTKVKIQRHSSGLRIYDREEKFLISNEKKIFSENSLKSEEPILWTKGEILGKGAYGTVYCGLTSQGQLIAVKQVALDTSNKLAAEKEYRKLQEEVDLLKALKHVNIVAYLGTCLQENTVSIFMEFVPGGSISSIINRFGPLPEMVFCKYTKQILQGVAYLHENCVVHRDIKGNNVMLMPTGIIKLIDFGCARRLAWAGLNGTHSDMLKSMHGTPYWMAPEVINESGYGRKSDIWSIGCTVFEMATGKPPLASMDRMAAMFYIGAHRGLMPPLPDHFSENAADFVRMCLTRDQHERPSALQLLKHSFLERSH

[11] = molecular target: Myosin light chain kinase, smooth muscle (Homo sapiens, UniProt Q15746); assay: Selectivity interaction (Ambit KINOMEscan and KiNATiv profiling in Jurkat cells) EUB0000090b MYLK; format: cell-based; conditions: at 1 µM
[12] = molecular target: Dual specificity protein kinase CLK1 (Homo sapiens, UniProt P49759); assay: Selectivity interaction (Ambit KINOMEscan and KiNATiv profiling in Jurkat cells) EUB0000090b CLK1; format: cell-based; conditions: at 1 µM
Sequence of Dual specificity protein kinase CLK1 (P49759 whole entry, looked up): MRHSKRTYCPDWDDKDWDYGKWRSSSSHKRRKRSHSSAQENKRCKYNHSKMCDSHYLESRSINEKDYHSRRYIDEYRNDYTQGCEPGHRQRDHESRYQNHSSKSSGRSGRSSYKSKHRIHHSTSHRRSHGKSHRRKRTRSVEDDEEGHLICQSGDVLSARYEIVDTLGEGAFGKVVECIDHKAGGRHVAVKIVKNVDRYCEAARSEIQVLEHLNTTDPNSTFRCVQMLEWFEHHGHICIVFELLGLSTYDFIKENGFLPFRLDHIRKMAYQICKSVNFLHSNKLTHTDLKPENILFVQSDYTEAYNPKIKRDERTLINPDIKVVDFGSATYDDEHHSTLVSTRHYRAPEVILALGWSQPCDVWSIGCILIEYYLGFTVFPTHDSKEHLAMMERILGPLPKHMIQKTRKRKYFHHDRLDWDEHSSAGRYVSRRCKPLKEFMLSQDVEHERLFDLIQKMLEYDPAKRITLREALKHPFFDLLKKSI

Sequence of Receptor tyrosine-protein kinase erbB-4 (Q15303 whole entry): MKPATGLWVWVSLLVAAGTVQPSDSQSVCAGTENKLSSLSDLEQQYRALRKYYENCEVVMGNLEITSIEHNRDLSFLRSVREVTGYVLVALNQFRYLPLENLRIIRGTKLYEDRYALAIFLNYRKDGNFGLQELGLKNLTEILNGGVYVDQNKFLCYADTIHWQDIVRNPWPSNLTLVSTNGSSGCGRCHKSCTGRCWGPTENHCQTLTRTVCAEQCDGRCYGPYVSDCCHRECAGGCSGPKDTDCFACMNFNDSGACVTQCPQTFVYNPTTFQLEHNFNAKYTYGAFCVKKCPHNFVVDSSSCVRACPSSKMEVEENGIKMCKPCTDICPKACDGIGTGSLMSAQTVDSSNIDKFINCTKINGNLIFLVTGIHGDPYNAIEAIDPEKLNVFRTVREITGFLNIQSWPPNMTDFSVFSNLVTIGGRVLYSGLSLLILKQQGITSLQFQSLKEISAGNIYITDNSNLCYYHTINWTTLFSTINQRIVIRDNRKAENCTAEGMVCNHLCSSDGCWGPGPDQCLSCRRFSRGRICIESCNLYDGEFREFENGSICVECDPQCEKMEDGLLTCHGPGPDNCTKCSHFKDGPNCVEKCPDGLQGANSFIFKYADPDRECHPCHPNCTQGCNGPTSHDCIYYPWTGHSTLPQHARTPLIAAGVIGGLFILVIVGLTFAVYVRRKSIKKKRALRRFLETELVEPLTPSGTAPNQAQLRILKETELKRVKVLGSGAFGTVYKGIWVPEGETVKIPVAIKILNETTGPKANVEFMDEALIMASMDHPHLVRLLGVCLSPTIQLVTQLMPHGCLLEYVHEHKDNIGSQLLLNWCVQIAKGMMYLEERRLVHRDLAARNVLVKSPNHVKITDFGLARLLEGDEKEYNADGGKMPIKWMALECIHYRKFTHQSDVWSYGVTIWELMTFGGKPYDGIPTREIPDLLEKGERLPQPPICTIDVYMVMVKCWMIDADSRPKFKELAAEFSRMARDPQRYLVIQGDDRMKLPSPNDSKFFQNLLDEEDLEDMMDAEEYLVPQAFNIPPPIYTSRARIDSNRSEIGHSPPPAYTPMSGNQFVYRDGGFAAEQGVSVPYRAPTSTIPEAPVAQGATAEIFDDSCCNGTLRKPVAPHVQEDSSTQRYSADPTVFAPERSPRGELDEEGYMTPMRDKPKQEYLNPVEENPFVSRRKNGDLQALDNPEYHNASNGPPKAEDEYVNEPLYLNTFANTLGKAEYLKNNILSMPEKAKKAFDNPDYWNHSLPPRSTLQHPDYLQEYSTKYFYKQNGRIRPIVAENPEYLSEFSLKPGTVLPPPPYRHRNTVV
Sequence of Diacylglycerol kinase alpha (Homo sapiens) (P23743 whole entry): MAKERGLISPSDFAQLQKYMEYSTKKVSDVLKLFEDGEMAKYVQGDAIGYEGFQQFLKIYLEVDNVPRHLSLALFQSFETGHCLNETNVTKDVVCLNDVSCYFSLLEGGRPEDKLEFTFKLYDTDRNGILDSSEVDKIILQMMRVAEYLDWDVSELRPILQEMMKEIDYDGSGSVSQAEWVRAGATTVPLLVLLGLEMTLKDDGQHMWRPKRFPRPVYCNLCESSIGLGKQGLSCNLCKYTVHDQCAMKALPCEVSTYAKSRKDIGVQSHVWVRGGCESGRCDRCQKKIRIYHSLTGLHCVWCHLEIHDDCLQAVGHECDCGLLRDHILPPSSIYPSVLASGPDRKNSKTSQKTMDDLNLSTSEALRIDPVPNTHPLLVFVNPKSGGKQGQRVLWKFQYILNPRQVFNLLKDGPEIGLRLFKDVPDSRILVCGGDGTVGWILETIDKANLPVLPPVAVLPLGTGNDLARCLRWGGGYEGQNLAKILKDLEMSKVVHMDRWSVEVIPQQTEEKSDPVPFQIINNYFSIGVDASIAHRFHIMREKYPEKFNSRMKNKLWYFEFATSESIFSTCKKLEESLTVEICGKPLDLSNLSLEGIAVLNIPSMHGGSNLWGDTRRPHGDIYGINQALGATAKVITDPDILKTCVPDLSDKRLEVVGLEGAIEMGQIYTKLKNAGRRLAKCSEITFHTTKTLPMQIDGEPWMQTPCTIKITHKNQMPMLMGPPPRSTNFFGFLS
Sequence of Cyclin-dependent kinase 3 (Homo sapiens) (Q00526 whole entry, looked up): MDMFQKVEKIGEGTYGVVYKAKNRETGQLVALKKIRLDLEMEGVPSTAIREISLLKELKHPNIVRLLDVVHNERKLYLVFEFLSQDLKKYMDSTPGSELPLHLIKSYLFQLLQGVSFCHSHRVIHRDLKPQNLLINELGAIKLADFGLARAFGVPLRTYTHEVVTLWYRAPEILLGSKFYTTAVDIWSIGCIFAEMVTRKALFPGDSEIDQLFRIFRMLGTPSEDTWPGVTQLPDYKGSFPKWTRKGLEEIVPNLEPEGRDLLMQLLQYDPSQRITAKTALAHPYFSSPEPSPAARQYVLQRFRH
Sequence of Cyclin-dependent kinase 11B (Homo sapiens) (P21127 whole entry): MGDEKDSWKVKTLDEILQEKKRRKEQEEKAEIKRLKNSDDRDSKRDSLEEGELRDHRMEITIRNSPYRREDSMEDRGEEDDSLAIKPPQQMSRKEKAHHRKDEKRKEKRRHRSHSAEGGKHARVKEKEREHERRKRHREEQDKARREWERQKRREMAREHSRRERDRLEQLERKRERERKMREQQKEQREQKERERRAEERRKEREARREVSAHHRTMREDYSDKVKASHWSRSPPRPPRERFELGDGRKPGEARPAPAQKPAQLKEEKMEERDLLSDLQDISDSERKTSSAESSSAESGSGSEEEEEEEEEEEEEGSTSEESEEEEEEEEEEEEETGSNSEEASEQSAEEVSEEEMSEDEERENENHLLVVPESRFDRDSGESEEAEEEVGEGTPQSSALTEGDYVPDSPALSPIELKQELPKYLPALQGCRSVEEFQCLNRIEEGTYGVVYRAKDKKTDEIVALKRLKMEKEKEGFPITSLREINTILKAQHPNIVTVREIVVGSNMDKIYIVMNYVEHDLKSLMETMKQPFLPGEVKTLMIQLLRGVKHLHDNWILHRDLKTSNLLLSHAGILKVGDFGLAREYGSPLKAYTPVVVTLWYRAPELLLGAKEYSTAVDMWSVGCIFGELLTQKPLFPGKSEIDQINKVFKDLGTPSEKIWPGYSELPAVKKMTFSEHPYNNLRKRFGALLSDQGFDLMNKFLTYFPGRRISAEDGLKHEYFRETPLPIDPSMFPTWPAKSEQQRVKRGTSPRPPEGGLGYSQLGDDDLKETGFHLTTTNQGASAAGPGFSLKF
Sequence of Serine/threonine-protein kinase 38-like (Homo sapiens) (Q9Y2H1 2-464 limits assumed): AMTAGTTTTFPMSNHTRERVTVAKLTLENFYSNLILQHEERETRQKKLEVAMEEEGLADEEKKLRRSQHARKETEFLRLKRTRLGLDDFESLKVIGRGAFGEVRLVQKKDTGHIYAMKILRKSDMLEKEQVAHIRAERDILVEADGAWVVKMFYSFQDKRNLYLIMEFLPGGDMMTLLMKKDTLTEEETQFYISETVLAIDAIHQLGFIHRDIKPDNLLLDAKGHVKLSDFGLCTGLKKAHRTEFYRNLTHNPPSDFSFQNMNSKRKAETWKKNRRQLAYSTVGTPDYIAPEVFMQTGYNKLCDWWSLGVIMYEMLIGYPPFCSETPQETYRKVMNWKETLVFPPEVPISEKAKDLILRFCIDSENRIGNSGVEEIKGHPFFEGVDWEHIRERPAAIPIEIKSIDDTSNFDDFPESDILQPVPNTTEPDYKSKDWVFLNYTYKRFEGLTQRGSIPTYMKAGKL
Sequence of Calcium/calmodulin-dependent protein kinase type 1D (Homo sapiens) (Q8IU85 whole entry, looked up): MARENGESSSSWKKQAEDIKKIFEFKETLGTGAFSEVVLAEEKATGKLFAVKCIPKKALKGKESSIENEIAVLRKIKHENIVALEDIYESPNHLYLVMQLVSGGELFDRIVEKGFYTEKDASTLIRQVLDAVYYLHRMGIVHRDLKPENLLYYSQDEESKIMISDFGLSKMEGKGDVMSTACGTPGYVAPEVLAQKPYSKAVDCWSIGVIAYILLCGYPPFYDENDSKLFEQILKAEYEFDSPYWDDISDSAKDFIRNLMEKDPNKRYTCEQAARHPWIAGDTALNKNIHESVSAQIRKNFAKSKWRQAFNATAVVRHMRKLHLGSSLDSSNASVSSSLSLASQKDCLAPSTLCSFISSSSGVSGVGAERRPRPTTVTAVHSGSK

`CNCCN1CCC(c2cc(CN(C)C(=O)c3cccc(Oc4ccccc4)c3)ccn2)CC1` gave a % activity [1] greater than 90%.
Molecule `C=CC(=O)Nc1cc(-n2c(=O)ccc3cnc4ccc(-c5ccc(NS(C)(=O)=O)cc5)cc4c32)ccc1C` has a % of control ([2]; at 1 µM) of 78% and a % of control ([2]; at 10 µM) of 18%.
Work on `COc1cc(Nc2nc(C)cc(-c3cnn4nc(OC)ccc34)n2)cc(C(F)(F)F)c1` yielded a % of control [3] of 100%.
For `N#Cc1cccc(-c2c[nH]c3ncnc(N4CCOCC4)c23)c1`, the % of inhibition [4] was -9%.
With `O[C@H]1CC[C@H](Nc2ncc3nc(Nc4c(F)cc(F)cc4F)n([C@H]4CCOC4)c3n2)CC1` the % of control [5] was 100%.
In the case of `CC[C@@H]1[C@H](F)C(=O)N[C@@H]1COc1nccc2cc(C(N)=O)c(OC)cc12` [ZIMLOVISERTIB], the % of inhibition [6] is reported as 5.2%.
`CN(C)CCOc1ccc(-c2nc(-c3ccncc3)c(-c3ccc4c(c3)CC/C4=N\O)[nH]2)cc1` gave a % of control [7] of 87%.
In the case of `CCN(CC)CCCCNc1ncc2cc(-c3cc(OC)cc(OC)c3)c(NC(=O)NC(C)(C)C)nc2n1`, the % of control [8] is reported as 100%.
Molecule `CCC(=O)N1CCN(c2ccc(-n3c(=O)ccc4cnc5ccc(-c6cnc7ccccc7c6)cc5c43)cc2C(F)(F)F)CC1` has a % of control [9] of 50%.
With `CN(C)C/C=C/C(=O)Nc1ccc(C(=O)N2CCCC(Nc3ncc(Cl)c(-c4c[nH]c5ccccc45)n3)C2)cc1` (stereo not drawn) the % of control [10] was 98%, the % of control [11] was 78% and the % of control [12] was 62%.
